Measured values taken from ChEMBL document CHEMBL4715854, “Discovery of Roblitinib (FGF401) as a Reversible-Covalent Inhibitor of the Kinase Activity of Fibroblast Growth Factor Receptor 4” (J Med Chem, 2020).
Converted amounts (≈) assume the structure as drawn.

Columns and labels:
[1] = Drug metabolism in human liver microsome assessed as reduction of aldehyde group at 10 mM measured after 15 mins in presence of NADPH by LC-MS analysis; type: ADME; details: microsomes, 10000 µM
[2] = Drug metabolism in rat liver microsome assessed as reduction of aldehyde group at 10 mM measured after 15 mins in presence of NADPH by LC-MS analysis; type: ADME; details: microsomes, 10000 µM
[3] = Permeability of the compound in human Caco-2 cells assessed as compound recovery at 10 uM measured after 2 hrs by LC/MS/MS analysis; type: ADME, cell-based; details: read-out: Drug recovery
[4] = Aqueous solubility of compound at pH 6.8; type: physicochemical; details: buffer, time 15 min
[5] = Oral bioavailability in Crl:CD (SD) rat at 3 mg/kg measured upto 24 hrs by LC-MS/MS analysis; type: ADME, organism-based; details: Crl:CD (SD), in vivo
[6] = Volume of distribution at steady state in Crl:CD (SD) rat at 1 mg/kg, iv or 3 mg/kg, po measured upto 24 hrs by LC-MS/MS analysis; type: ADME, organism-based; details: in vivo, read-out: Vdss
[7] = Half-life in Crl:CD (SD) rat at 1 mg/kg, iv or 3 mg/kg, po measured upto 24 hrs by LC-MS/MS analysis; type: ADME, organism-based; details: in vivo
[8] = Clearance in Crl:CD (SD) rat at 1 mg/kg, iv or 3 mg/kg, po measured up to 24 hrs by LC-MS/MS analysis; type: ADME, organism-based; details: in vivo
[9] = Dose normalized AUC in Crl:CD (SD) rat at 3 mg/kg, po measured up to 24 hrs by LC-MS/MS analysis; type: ADME, organism-based; details: in vivo
[10] = Thermodynamic solubility of compound in phosphate buffer at pH 6.8 measured after 15 mins by shake-flask method based LC-HRMS analysis; type: physicochemical; details: read-out: Therm_solubility
[11] = Dose normalized AUC in Crl:CD (SD) rat at 1 mg/kg, iv measured up to 24 hrs by LC-MS/MS analysis; type: ADME, organism-based; details: in vivo

SMILES | Drug metabolism [1] | Drug metabolism [2] | recovery at 2 h, 10 µM [3] | also measured
N#Cc1cnc(NC(=O)N2CCCc3ccc(C=O)nc32)cn1 | Metabolite_Detected | Metabolite_Detected | < 10% | –
CC(C)Oc1cc(NC(=O)N2CCc3ccc(C=O)nc32)ncc1C#N | Metabolite_Detected | Metabolite_Detected | < 10% | –
COCCOc1cc(NC(=O)N2CCCc3ccc(C=O)nc32)ncc1C#N | Metabolite_Detected | Metabolite_Detected | < 10% | –
N#Cc1ccc(NC(=O)N2CCCCc3ccc(C=O)nc32)nc1 | Metabolite_Detected | Metabolite_Detected | < 10% | –
CC(=O)N(C)Cc1cc2c(nc1C=O)N(C(=O)Nc1ccc(C#N)cn1)CCC2 | – | – | – | solubility at […] [4]: 18 µM (≈ 7.06 µg/mL)
CC1(O)CCN(c2cc(NC(=O)N3CCCc4ccc(C=O)nc43)ncc2C#N)CC1 | Metabolite_Detected | Metabolite_Detected | < 10% | –
Cc1cc2c(nc1C=O)N(C(=O)Nc1ccc(C#N)cn1)CCC2 | Metabolite_Detected | Metabolite_Detected | < 10% | –
CC(C)Oc1cc(NC(=O)N2CCCc3ccc(C=O)nc32)ncc1C#N | Metabolite_Detected | Metabolite_Detected | < 10% | –
O=Cc1ccc2c(n1)N(C(=O)Nc1ccc(C(F)(F)F)cn1)CCO2 | Metabolite_Detected | Metabolite_Detected | < 10% | –
COCCOc1cc(NC(=O)N2CCCc3cc(CO)c(C=O)nc32)ncc1C#N | Metabolite_Detected | Metabolite_Detected | < 10% | bioavailability [5]: 24%; Vd [6]: 2.5 L/kg; half-life [7]: 2 h; clearance [8]: 3.12 L/h/kg; AUC/dose [9]: 194 nM·h; solubility thermodynamic at […] [10]: 11 µM (≈ 4.53 µg/mL)
O=Cc1ccc2cccc(C(=O)Nc3ccc(C(F)(F)F)cn3)c2n1 | – | – | – | solubility thermodynamic at […] [10]: < 2.9 µM
COCCNc1cc(NC(=O)N(CCOC)c2cccc(C=O)n2)ncc1C#N | Metabolite_Detected | Metabolite_Detected | < 10% | –
COCCNc1cc(NC(=O)N(C)c2cccc(C=O)n2)ncc1C#N | Metabolite_Detected | Metabolite_Detected | < 10% | –
O=Cc1nc2c(C(=O)Nc3ccc(C(F)(F)F)cn3)cccc2cc1O | Metabolite_Detected | Metabolite_Detected | < 10% | –
COC[C@@H](C)Nc1cc(NC(=O)N2CCCc3cc(CN4CCN(C)CC4=O)c(C=O)nc32)ncc1C#N | – | – | – | clearance [8]: 2.1 L/h/kg
COCCNc1cc(NC(=O)N2CCCc3cc(CN(C)C(C)=O)c(C=O)nc32)ncc1C#N | – | – | – | AUC/dose [11]: 2307 nM·h; bioavailability [5]: 26%; Vd [6]: 8.6 L/kg; half-life [7]: 27.7 h; clearance [8]: 0.96 L/h/kg; AUC/dose [9]: 599 nM·h; solubility thermodynamic at […] [10]: 8 µM (≈ 3.72 µg/mL)
COCCNc1cc(NC(=O)N2CCCc3cc(-n4cnc(C)c4)c(C=O)nc32)ncc1C#N | Metabolite_Detected | Metabolite_Detected | < 10% | solubility at […] [4]: < 4 µM
COC[C@H](C)Nc1cc(NC(=O)N2CCCc3cc(CN4CCN(C)CC4=O)c(C=O)nc32)ncc1C#N | – | – | – | clearance [8]: 1.14 L/h/kg
COCCNc1cc(NC(=O)N(C)c2ccc(CN3CCN(C)CC3=O)c(C=O)n2)ncc1C#N | – | – | – | clearance [8]: 5.28 L/h/kg
CCN1CCN(c2ccc(Nc3cc(N(C)C(=O)Nc4c(Cl)c(OC)cc(OC)c4Cl)ncn3)cc2)CC1 [INFIGRATINIB] | Metabolite_Detected | Metabolite_Detected | < 10% | –
